Values of other authors as cited in patent US20240041861A1, “COMPOSITIONS AND METHODS FOR TREATMENT AND PROPHYLAXIS OF VIRAL INFECTIONS” (priority 2020, published 2024).
In brackets after ≈: the same amount, converted by molar mass. Like-named read-outs stand apart in the source and are kept apart here. Values belong to the compound of their own block, whether it stands above or below them.

How the values were obtained:
[1] = in vivo
[2] = not given; remark: listed apart in the source
[3] = in vivo; remark: listed apart in the source
PDE5 = PDE5 (Homo sapiens, UniProt O76074)
[4] = human, in vivo
[5] = not given; remark: listed apart in the source

SMILES: CCN(CCO)CCCC(C)Nc1ccnc2cc(Cl)ccc12 (centres unmarked) [hydroxychloroquine]
half-life (in vivo): about 40 days
mean fraction of the dose absorbed (in vivo): 0.74
dose excreted as the parent drug in urine (in vivo, po): approximately 10%
half-life (in vivo, po, 200 mg): 22.4 days
mean peak blood concentration (single 200 mg oral dose of PLAQUENIL, healthy males, blood): 129.6 ng/mL
half-life (single 200 mg oral dose, healthy males, plasma): 123.5 days
fraction of the dose absorbed [1]: 30-100%
renal clearance of unchanged drug [1]: 16-30%
absorption half-life ([1]; po): 0.12 to 0.17 days
terminal half-life ([1]; po): 40 to 50 days
time of peak plasma levels ([1]; po): 3 to 4 h

SMILES: CCCc1nn(C)c2c(=O)[nH]c(-c3cc(S(=O)(=O)N4CCNCC4)ccc3OCC)nc12 [N-desmethyl metabolite]
bound to plasma proteins [2]: approximately 96%
terminal half lives [3]: about 4 hours
in vitro potency for PDE5 relative to the parent drug (PDE5): approximately 50%

SMILES: CC(C)(C)OC(=O)N[C@H]1CCCCC/C=C\[C@@H]2C[C@@]2(C(=O)NS(=O)(=O)C2CC2)NC(=O)[C@@H]2C[C@@H](OC(=O)N3Cc4cccc(F)c4C3)CN2C1=O [Danoprevir]
EC50 (replicon GT1b): 1.6 nM
IC50 (NS3/4A HCV protease GT1b): 0.2 to 0.4 nM

bound to plasma proteins [2]: approximately 96%
mean steady state volume of distribution (Vss) [3]: 105 L
terminal half lives [3]: about 4 hours
SMILES: CCCc1nn(C)c2c(=O)[nH]c(-c3cc(S(=O)(=O)N4CCN(C)CC4)ccc3OCC)nc12 [sildenafil]

plasma levels relative to those obtained after the ritonavir dose of 600 mg twice daily [4]: less than 7%
SMILES: CC(C)c1nc(CN(C)C(=O)N[C@H](C(=O)N[C@@H](Cc2ccccc2)C[C@H](O)[C@H](Cc2ccccc2)NC(=O)OCc2cncs2)C(C)C)cs1 [ritonavir]

solubility ([5]; pH 1): 2940 µg/mL (≈ 6440 µM)
solubility ([5]; pH 2): 295 µg/mL (≈ 646 µM)
solubility ([5]; pH 7.4): 0.81 µg/mL (≈ 1.77 µM)
SMILES: CC(C)Nc1cccnc1N1CCN(C(=O)c2cc3cc(NS(C)(=O)=O)ccc3[nH]2)CC1 [delavirdine free base]
